Like-named read-outs stand apart in the source and are kept apart here.
Legend:
HCV NS5B = biological target: T1, HCV NS5B (Hepatitis C virus genotype 1b, UniProt Q9WMX2); assay: HCV NS5B RdRp enzyme assay (preincubation protocol); format: biochemical
T1 construct: The protein was expressed with an 18 amino acid C-terminal truncation to enhance the solubility; made in house; host or cells: E. coli BL21 (DE3), pET21a
Method in brief: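 C-terminally truncated (Δ18) genotype 1b NS5B from E. coli, 14 nM, added to compound, then polyA template (0.2 nM), 3H-UTP (0.29 μM) and oligo-dT12 primer precaptured on streptavidin SPA beads. 4 h at 30 °C, pH 7.5, 2% DMSO; SPA readout; IC50 from seven concentrations by logistic fit.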

HCV replicon = HCV replicon FRET assay; format: cell-based; settings: Hepatitis C virus, FRET assay, read-out: EC50*
Method in brief: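 HCV replicon cells, with or without Renilla luciferase reporter, incubated with titrated compounds at 37 °C; Alamar blue read for cytotoxicity. NS3 protease activity read from lysates with 20 μM EDANS/DABCYL FRET peptide (340/490 nm, kinetic), or by Dual-Glo luciferase. Background from highest protease-inhibitor wells; EC50 = 50% signal reduction.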

T1 sequence (Q9WMX2 2420-2992): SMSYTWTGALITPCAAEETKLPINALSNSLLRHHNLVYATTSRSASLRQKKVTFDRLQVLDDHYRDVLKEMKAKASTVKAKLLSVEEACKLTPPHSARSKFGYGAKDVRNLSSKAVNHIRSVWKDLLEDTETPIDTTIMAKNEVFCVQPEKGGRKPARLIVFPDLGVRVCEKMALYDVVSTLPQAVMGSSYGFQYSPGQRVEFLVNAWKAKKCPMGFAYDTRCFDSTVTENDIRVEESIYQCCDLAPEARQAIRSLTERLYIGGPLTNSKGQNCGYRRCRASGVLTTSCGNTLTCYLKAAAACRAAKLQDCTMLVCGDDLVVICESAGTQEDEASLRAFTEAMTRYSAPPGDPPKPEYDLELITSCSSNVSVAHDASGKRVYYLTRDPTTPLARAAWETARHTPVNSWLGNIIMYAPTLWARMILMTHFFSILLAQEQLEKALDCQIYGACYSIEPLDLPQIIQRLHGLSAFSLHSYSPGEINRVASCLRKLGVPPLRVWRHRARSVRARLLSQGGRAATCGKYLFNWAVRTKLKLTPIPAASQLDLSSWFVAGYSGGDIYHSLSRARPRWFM

CC(C)(C)OC(=O)N1CCN(C(=O)C2=Cc3ccccc3-c3c(C4CCCCC4)c4ccc(C(=O)O)cc4n3C2)CC1
IC50 (HCV NS5B; Table 1, read-out: IC50*): 0.01 to 1 µM | EC50 (HCV replicon; Table 1): 0.07 to 1 µM

C[C@@H]1CN(C(=O)c2ccccc2)CCN1C(=O)C1=Cc2ccccc2-c2c(C3CCCCC3)c3ccc(C(=O)O)cc3n2C1
IC50 (HCV NS5B; Table 1, read-out: IC50*): 0.01 to 1 µM | EC50 (HCV replicon; Table 1): 0.07 to 1 µM

O=C(O)c1ccc2c(C3CCCCC3)c3n(c2c1)CC(C(=O)N1CCN(C(=O)N2CCOCC2)CC1)=Cc1ccccc1-3
IC50 (HCV NS5B; Table 1, read-out: IC50*): 0.01 to 1 µM | EC50 (HCV replicon; Table 1): 0.07 to 1 µM

COc1ccc(S(=O)(=O)N2CCN(C(=O)C3=Cc4ccccc4-c4c(C5CCCCC5)c5ccc(C(=O)NS(=O)(=O)N(C)C)cc5n4C3)CC2)cc1
IC50 (HCV NS5B; Table 1, read-out: IC50*): 0.01 to 1 µM | EC50 (HCV replicon; Table 1): 0.07 to 1 µM

CCOC(=O)CN1CCN(C(=O)C2=Cc3ccccc3-c3c(C4CCCCC4)c4ccc(C(=O)NS(=O)(=O)N(C)C)cc4n3C2)CC1
IC50 (HCV NS5B; Table 1, read-out: IC50*): 0.01 to 1 µM | EC50 (HCV replicon; Table 1): 0.07 to 1 µM

CN(C)S(=O)(=O)NC(=O)c1ccc2c(C3CCCCC3)c3n(c2c1)CC(C(=O)N1CCN(CC(=O)N2CCOCC2)CC1)=Cc1ccccc1-3
IC50 (HCV NS5B; Table 1, read-out: IC50*): 0.01 to 1 µM | EC50 (HCV replicon; Table 1): 0.07 to 1 µM

CN(C)S(=O)(=O)NC(=O)c1ccc2c(C3CCCCC3)c3n(c2c1)CC(C(=O)N1CCN(C(=O)C2COc4ccccc4O2)CC1)=Cc1ccccc1-3 (stereo not shown)
IC50 (HCV NS5B; Table 1, read-out: IC50*): 0.01 to 1 µM | EC50 (HCV replicon; Table 1): 0.07 to 1 µM

COCCN1CCN(C(=O)C2=Cc3ccccc3-c3c(C4CCCCC4)c4ccc(C(=O)NS(=O)(=O)N(C)C)cc4n3C2)CC1
IC50 (HCV NS5B; Table 1, read-out: IC50*): 0.01 to 1 µM | EC50 (HCV replicon; Table 1): 0.07 to 1 µM

CCS(=O)(=O)N1CCN(C(=O)C2=Cc3ccccc3-c3c(C4CCCCC4)c4ccc(C(=O)NS(=O)(=O)N(C)C)cc4n3C2)CC1
IC50 (HCV NS5B; Table 1, read-out: IC50*): 0.01 to 1 µM | EC50 (HCV replicon; Table 1): 0.07 to 1 µM

CN(C)S(=O)(=O)NC(=O)c1ccc2c(C3CCCCC3)c3n(c2c1)CC(C(=O)N1CCN2C(=O)c4ccccc4CC2C1)=Cc1ccccc1-3 (stereo not shown)
IC50 (HCV NS5B; Table 1, read-out: IC50*): 0.01 to 1 µM | EC50 (HCV replicon; Table 1): 0.07 to 1 µM

CN(C)S(=O)(=O)NC(=O)c1ccc2c(C3CCCCC3)c3n(c2c1)CC(C(=O)N1CCN(S(=O)(=O)c2ccccc2)CC1)=Cc1ccccc1-3
IC50 (HCV NS5B; Table 1, read-out: IC50*): 0.01 to 1 µM | EC50 (HCV replicon; Table 1): 0.07 to 1 µM

CN(C)S(=O)(=O)NC(=O)c1ccc2c(C3CCCCC3)c3n(c2c1)CC(C(=O)N1CCN(C(=O)C2CC2)CC1)=Cc1ccccc1-3
IC50 (HCV NS5B; Table 1, read-out: IC50*): 0.01 to 1 µM | EC50 (HCV replicon; Table 1): 0.07 to 1 µM

COc1ccc2c(c1)C=C(C(=O)N1CCN(S(C)(=O)=O)CC1)Cn1c-2c(C2CCCCC2)c2ccc(C(=O)NS(=O)(=O)N(C)C)cc21
IC50 (HCV NS5B; Table 1, read-out: IC50*): 0.01 to 1 µM | EC50 (HCV replicon; Table 1): 0.07 to 1 µM

COc1ccc2c(c1)C=C(C(=O)N1CCN(S(=O)(=O)N(C)C)CC1)Cn1c-2c(C2CCCCC2)c2ccc(C(=O)NS(=O)(=O)N(C)C)cc21
IC50 (HCV NS5B; Table 1, read-out: IC50*): 0.01 to 1 µM | EC50 (HCV replicon; Table 1): 0.07 to 1 µM

CN(C)S(=O)(=O)NC(=O)c1ccc2c(C3CCCCC3)c3n(c2c1)CC(C(=O)N1CCN(S(C)(=O)=O)CC1)=Cc1cc(OCc2ccccc2)ccc1-3
IC50 (HCV NS5B; Table 1, read-out: IC50*): 0.01 to 1 µM | EC50 (HCV replicon; Table 1): 0.07 to 1 µM

CC(=O)OCC(=O)N1CCN(C(=O)C2=Cc3ccccc3-c3c(C4CCCCC4)c4ccc(C(=O)NS(=O)(=O)N5CCOCC5)cc4n3C2)CC1
IC50 (HCV NS5B; Table 1, read-out: IC50*): 0.01 to 1 µM | EC50 (HCV replicon; Table 1): 0.07 to 1 µM

CN(C)S(=O)(=O)NC(=O)c1ccc2c(C3CCCCC3)c3n(c2c1)CC(C(=O)N1CCN(c2nccs2)CC1)=Cc1ccccc1-3
IC50 (HCV NS5B; Table 1, read-out: IC50*): 0.01 to 1 µM | EC50 (HCV replicon; Table 1): 0.07 to 1 µM

CN(C)S(=O)(=O)NC(=O)c1ccc2c(C3CCCCC3)c3n(c2c1)CC(C(=O)N1CCn2cnnc2C1)=Cc1ccccc1-3
IC50 (HCV NS5B; Table 1, read-out: IC50*): 0.01 to 1 µM | EC50 (HCV replicon; Table 1): 1 to 10 µM

CN(C)S(=O)(=O)NC(=O)c1ccc2c(C3CCCCC3)c3n(c2c1)CC(C(=O)N1CCN(c2ncncn2)CC1)=Cc1ccccc1-3
IC50 (HCV NS5B; Table 1, read-out: IC50*): 0.01 to 1 µM | EC50 (HCV replicon; Table 1): 0.07 to 1 µM

CC(=O)N1CCN(C(=O)C2Cc3ccccc3-c3c(C4CCCCC4)c4ccc(C(=O)NS(=O)(=O)N(C)C)cc4n3C2)CC1 (stereo not shown)
IC50 (HCV NS5B; Table 1, read-out: IC50*): 0.01 to 1 µM | EC50 (HCV replicon; Table 1): 0.07 to 1 µM

CN(C)S(=O)(=O)NC(=O)c1ccc2c(C3CCCCC3)c3n(c2c1)CC(C(=O)N1CCN(S(C)(=O)=O)CC1)Cc1ccccc1-3 (stereo not shown)
IC50 (HCV NS5B; Table 1, read-out: IC50*): 0.01 to 1 µM | EC50 (HCV replicon; Table 1): 0.07 to 1 µM

O=C1Cn2c(c(C3CCCCC3)c3ccc(C(=O)NS(=O)(=O)N4CCOCC4)cc32)-c2ccccc2N1
IC50 (HCV NS5B; Table 1, read-out: IC50*): 0.01 to 1 µM | EC50 (HCV replicon; Table 1): 0.07 to 1 µM

O=C(NS(=O)(=O)C(F)(F)F)c1ccc2c(C3CCCCC3)c3n(c2c1)CC(C(=O)N1CCOCC1)=Cc1ccccc1-3
IC50 (HCV NS5B; Table 1, read-out: IC50*): 0.01 to 1 µM | EC50 (HCV replicon; Table 1): 1 to 10 µM

O=C(NS(=O)(=O)C(F)(F)F)c1ccc2c(C3CCCCC3)c3n(c2c1)CC(C(=O)N1CCOCC1)Cc1ccccc1-3 (stereo not shown)
IC50 (HCV NS5B; Table 1, read-out: IC50*): 0.01 to 1 µM | EC50 (HCV replicon; Table 1): 0.07 to 1 µM

O=C(NS(=O)(=O)N1CCOCC1)c1ccc2c(C3CCCCC3)c3n(c2c1)CC(C(=O)N1CCOCC1)=Cc1ccccc1-3
IC50 (HCV NS5B; Table 1, read-out: IC50*): 0.01 to 1 µM | EC50 (HCV replicon; Table 1): 0.07 to 1 µM

O=C(NS(=O)(=O)N1CCOCC1)c1ccc2c(C3CCCCC3)c3n(c2c1)CC(C(=O)N1CCOCC1)Cc1ccccc1-3 (stereo not shown)
IC50 (HCV NS5B; Table 1, read-out: IC50*): 0.01 to 1 µM | EC50 (HCV replicon; Table 1): 0.07 to 1 µM

CN1CCN(S(=O)(=O)NC(=O)c2ccc3c(C4CCCCC4)c4n(c3c2)CC(C(=O)N2CCOCC2)=Cc2ccccc2-4)CC1
IC50 (HCV NS5B; Table 1, read-out: IC50*): 0.01 to 1 µM | EC50 (HCV replicon; Table 1): 0.07 to 1 µM

O=C(NS(=O)(=O)N1CCOCC1)c1ccc2c(C3CCCCC3)c3n(c2c1)CC(C(=O)N1CCC(N2CCOCC2)CC1)=Cc1ccccc1-3
IC50 (HCV NS5B; Table 1, read-out: IC50*): 0.01 to 1 µM | EC50 (HCV replicon; Table 1): 0.07 to 1 µM

C[C@@H]1CN(C(=O)C2=Cc3ccccc3-c3c(C4CCCCC4)c4ccc(C(=O)NS(=O)(=O)N5CCOCC5)cc4n3C2)C[C@H](C)O1
IC50 (HCV NS5B; Table 1, read-out: IC50*): 0.01 to 1 µM | EC50 (HCV replicon; Table 1): 0.07 to 1 µM

CC(=O)N1CCN(C(=O)C2=Cc3ccccc3-c3c(C4CCCCC4)c4ccc(C(=O)NS(=O)(=O)N5CCOCC5)cc4n3C2)CC1
IC50 (HCV NS5B; Table 1, read-out: IC50*): 0.01 to 1 µM | EC50 (HCV replicon; Table 1): 0.07 to 1 µM

COC(=O)C1=Cc2ccccc2-c2c(C3CCCCC3)c3ccc(C(=O)NS(=O)(=O)N4CCOCC4)cc3n2C1
IC50 (HCV NS5B; Table 1, read-out: IC50*): 0.01 to 1 µM | EC50 (HCV replicon; Table 1): 0.07 to 1 µM

COC(=O)c1ccc2c(C3CCCCC3)c3n(c2c1)CC(NC(=O)N1C[C@@H](C)O[C@@H](C)C1)Cc1cc(OC)ccc1-3 (stereo partly shown)
IC50 (HCV NS5B; Table 1a, read-out: IC50*): 0.01 to 1 µM | EC50 (HCV replicon; Table 1a): 0.03 to 1 µM

COc1ccc2c(c1)C=C(C(=O)N1CCC(C(=O)N3CCOCC3)CC1)Cn1c-2c(C2CCCCC2)c2ccc(C(=O)NS(=O)(=O)N(C)C)cc21
IC50 (HCV NS5B; Table 1a, read-out: IC50*): 0.01 to 1 µM | EC50 (HCV replicon; Table 1a): 0.03 to 1 µM

COc1ccc2c(c1)C=C(C(=O)N1CCOC(CNC(C)=O)C1)Cn1c-2c(C2CCCCC2)c2ccc(C(=O)NS(=O)(=O)N(C)C)cc21 (stereo not shown)
IC50 (HCV NS5B; Table 1a, read-out: IC50*): < 0.02 µM | EC50 (HCV replicon; Table 1a): 0.03 to 1 µM

COc1ccc2c(c1)C=C(C(=O)N1C[C@@H](C)N(C(C)=O)[C@@H](C)C1)Cn1c-2c(C2CCCCC2)c2ccc(C(=O)NS(=O)(=O)N(C)C)cc21
IC50 (HCV NS5B; Table 1a, read-out: IC50*): 0.01 to 1 µM | EC50 (HCV replicon; Table 1a): 0.03 to 1 µM

COc1ccc(-c2[nH]c3cc(C(=O)NS(=O)(=O)N(C)C)ccc3c2C2CCCCC2)c(C(=O)N(C)CC(=O)N(C)C)c1
IC50 (HCV NS5B; Table 1a, read-out: IC50*): 0.01 to 1 µM | EC50 (HCV replicon; Table 1a): 0.03 to 1 µM

CC(=O)NN(C)C(=O)C1Cc2ccccc2-c2c(C3CCCCC3)c3ccc(C(=O)NS(=O)(=O)N(C)C)cc3n2C1 (stereo not shown)
IC50 (HCV NS5B; Table 1a, read-out: IC50*): 0.01 to 1 µM | EC50 (HCV replicon; Table 1a): 0.03 to 1 µM

COc1ccc2c(c1)C=C(C(=O)N(C)C[C@@H]1CCCO1)Cn1c-2c(C2CCCCC2)c2ccc(C(=O)NS(=O)(=O)N(C)C)cc21
IC50 (HCV NS5B; Table 1a, read-out: IC50*): 0.01 to 1 µM | EC50 (HCV replicon; Table 1a): 0.03 to 1 µM

COc1ccc2c(c1)C=C(C(=O)N(C)C[C@@H]1CCCO1)Cn1c-2c(C2CCCCC2)c2ccc(C(=O)O)cc21
IC50 (HCV NS5B; Table 1a, read-out: IC50*): 0.01 to 1 µM | EC50 (HCV replicon; Table 1a): 1 to 10 µM

CCOC(=O)[C@H]1C[C@@H](O)CN1C(=O)C1=Cc2cc(OC)ccc2-c2c(C3CCCCC3)c3ccc(C(=O)NS(=O)(=O)N(C)C)cc3n2C1
IC50 (HCV NS5B; Table 1a, read-out: IC50*): < 0.02 µM | EC50 (HCV replicon; Table 1a): 0.03 to 1 µM

COc1ccc2c(c1)C=C(C(=O)N1CCN(C(=O)C3CC3)CC1)Cn1c-2c(C2CCCCC2)c2ccc(C(=O)NS(=O)(=O)N(C)C)cc21
IC50 (HCV NS5B; Table 1a, read-out: IC50*): 0.01 to 1 µM | EC50 (HCV replicon; Table 1a): 0.03 to 1 µM

From patent publication US7473688B2, “Indolobenzazepine HCV NS5B inhibitors” (Bristol-Myers Squibb Company, priority 2005, dated 2009)
